Experimental data published in a compilation of properties of binary mixtures.
Where “and” joins values, the source holds several entries; their conditions need not be identical. Equal entries are not always repeated.

Assay: xn = mol fraction of the nth substance listed

SMILES: O=S(=O)([N-]S(=O)(=O)C(F)(F)F)C(F)(F)F.[Li+] + COCCOCCOCCOCCOC
- electrical conductivity (298 K, 100 kPa, x1 = 0.143): 0.255 S/m
- electrical conductivity (303 K, 100 kPa, x1 = 0.143): 0.29 S/m
- electrical conductivity (308 K, 100 kPa, x1 = 0.143): 0.325 S/m
- electrical conductivity (313 K, 100 kPa, x1 = 0.143): 0.362 S/m
- electrical conductivity (323 K, 100 kPa, x1 = 0.143): 0.465 S/m

SMILES: OCC(F)(F)F + COP(=O)([O-])OC.Cn1cc[n+](C)c1
- viscosity (298.15 K, 101 kPa, x2 = 0.1815): 6.5 mPa·s
- viscosity (313.15 K, 101 kPa, x2 = 0.1815): 4.6 mPa·s
- viscosity (313.15 K, 101 kPa, x2 = 0.4904): 24.5 mPa·s
- viscosity (313.15 K, 101 kPa, x2 = 0.803): 70.5 mPa·s
- viscosity (333.15 K, 101 kPa, x2 = 0.1815): 3.1 mPa·s
- viscosity (333.15 K, 101 kPa, x2 = 0.4904): 12.8 mPa·s

SMILES: O=C(O)CC(O)(CC(=O)O)C(=O)O + C[N+](C)(C)Cc1ccccc1.[Cl-]
- electrical conductivity (303.11 K, 101 kPa, x2 = 0.5): 0.0002 S/m
- electrical conductivity (308.2 K, 101 kPa, x2 = 0.5): 0.0005 S/m
- electrical conductivity (313.21 K, 101 kPa, x2 = 0.5): 0.0011 S/m
- viscosity (317.97 K, 101 kPa, x2 = 0.5): 152000 mPa·s
- electrical conductivity (318.06 K, 101 kPa, x2 = 0.5): 0.0019 S/m
- viscosity (323.1 K, 101 kPa, x2 = 0.5): 89000 mPa·s
- electrical conductivity (323.14 K, 101 kPa, x2 = 0.5): 0.0032 S/m
- viscosity (332.88 K, 101 kPa, x2 = 0.5): 28100 mPa·s
- electrical conductivity (333.12 K, 101 kPa, x2 = 0.5): 0.0095 S/m

SMILES: CCCCCC[n+]1ccn(C)c1.O=S(=O)([N-]S(=O)(=O)C(F)(F)F)C(F)(F)F + Cc1ccccc1
- electrical conductivity (298.15 K, 100 kPa, x1 = 0.0811): 0.3 S/m
- electrical conductivity (298.15 K, 100 kPa, x1 = 0.1207): 0.4 S/m
- electrical conductivity (298.15 K, 100 kPa, x1 = 0.1708): 0.5 S/m
- electrical conductivity (298.15 K, 100 kPa, x1 = 0.236): 0.6 S/m
- electrical conductivity (298.15 K, 100 kPa, x1 = 0.3246): 0.6 S/m

SMILES: CC(C)C[P+](C)(CC(C)C)CC(C)C.Cc1ccc(S(=O)(=O)[O-])cc1 + O
- viscosity (293.15 K, 101 kPa, x1 = 0.0066): 1.65 mPa·s
- viscosity (293.15 K, 101 kPa, x1 = 0.0152): 2.6 mPa·s
- viscosity (293.15 K, 101 kPa, x2 = 0): 1320 mPa·s
- viscosity (293.15 K, 101 kPa, x2 = 0.9557): 6.9 mPa·s

SMILES: CCCCCCCCCC[n+]1ccn(C)c1.O=S(=O)([N-]S(=O)(=O)C(F)(F)F)C(F)(F)F + O
- viscosity (293.15 K, 101 kPa, x2 = 0.204): 105 mPa·s
- electrical conductivity (295.15 K, 101 kPa, x2 = 0.204): 0.15 S/m

SMILES: CCCCCCCC[n+]1ccn(C)c1.F[P-](F)(F)(F)(F)F + O
- viscosity (298 K, 101 kPa, x2 = 0.113): 506 mPa·s

SMILES: CCCCCCCC[n+]1ccn(C)c1.O=S(=O)([N-]S(=O)(=O)C(F)(F)C(F)(F)F)C(F)(F)C(F)(F)F + O
- viscosity (293.15 K, 101 kPa, x2 = 0.148): 167 mPa·s
- electrical conductivity (295.15 K, 101 kPa, x2 = 0.148): 0.13 S/m

SMILES: CCCCCCCCn1cc[n+](C)c1.O=S(=O)([N-]S(=O)(=O)C(F)(F)F)C(F)(F)F + O
- viscosity (293.15 K, 101 kPa, x2 = 0.205): 75 mPa·s
- electrical conductivity (295.15 K, 101 kPa, x2 = 0.205): 0.21 S/m

SMILES: CCCCCC[n+]1ccn(C)c1.F[P-](F)(F)(F)(F)F + O
- viscosity (298 K, 101 kPa, x2 = 0.1334): 452 mPa·s

SMILES: CCCCCC[n+]1ccn(C)c1.O=S(=O)([N-]S(=O)(=O)C(F)(F)F)C(F)(F)F + O
- viscosity (293.15 K, 101 kPa, x2 = 0.233): 55 mPa·s

SMILES: CCCC[n+]1ccn(C)c1.F[B-](F)(F)F + O
- electrical conductivity (288.15 K, 100 kPa, x1 = 0.0001): 0.0392 S/m
- electrical conductivity (298.15 K, 100 kPa, x1 = 0.0001): 0.0505 S/m and 0.036 S/m
- electrical conductivity (318.15 K, 100 kPa, x1 = 0.0001): 0.0942 S/m and 0.0522 S/m

SMILES: CCCC[n+]1ccn(C)c1.O=S(=O)([N-]S(=O)(=O)C(F)(F)F)C(F)(F)F + O
- viscosity (298 K, 101 kPa, x2 = 0.0716): 27 mPa·s

SMILES: CC[N+](CC)(CC)CCCS(=O)(=O)O.F[B-](F)(F)F + O
- electrical conductivity (298 K, 101 kPa, x1 = 0.0002): 0.475 S/m
- electrical conductivity (298 K, 101 kPa, x1 = 0.0004): 0.658 S/m
- electrical conductivity (298 K, 101 kPa, x1 = 0.001): 0.921 S/m
- electrical conductivity (298 K, 101 kPa, x1 = 0.0016): 1.45 S/m
- electrical conductivity (298 K, 101 kPa, x1 = 0.004): 2.04 S/m
- electrical conductivity (298 K, 101 kPa, x1 = 0.006): 2.14 S/m
- electrical conductivity (298 K, 101 kPa, x1 = 0.008): 2.28 S/m
- electrical conductivity (298 K, 101 kPa, x1 = 0.01): 2.32 S/m

SMILES: CC[n+]1ccn(C)c1.CS(=O)(=O)[O-] + O
- viscosity (283.15 K, 102.2 kPa, x1 = 0.75): 88.7 mPa·s
- viscosity (288.15 K, 102.2 kPa, x1 = 0.75): 69 mPa·s
- viscosity (293.15 K, 102.2 kPa, x1 = 0.75): 53.3 mPa·s
- viscosity (308.15 K, 102.2 kPa, x1 = 0.75): 28.4 mPa·s
- viscosity (318.15 K, 102.2 kPa, x1 = 0.75): 20.6 mPa·s
- viscosity (323.15 K, 102.2 kPa, x1 = 0.75): 17.9 mPa·s
- viscosity (333.15 K, 102.2 kPa, x1 = 0.75): 14 mPa·s

SMILES: CC[n+]1ccn(C)c1.O=S(=O)([N-]S(=O)(=O)C(F)(F)F)C(F)(F)F + O
- viscosity (297.55 K, 101 kPa, x1 = 0.722): 18.2 mPa·s
- viscosity (297.55 K, 101 kPa, x1 = 0.8): 21.9 mPa·s
- viscosity (297.55 K, 101 kPa, x1 = 0.941): 28.9 mPa·s
- viscosity (297.55 K, 101 kPa, x1 = 1): 36.3 mPa·s

SMILES: CC[n+]1ccn(C)c1.O=S(=O)([O-])C(F)(F)F + O
- electrical conductivity (296.75 K, 101 kPa, x2 = 0.304): 1.12 S/m
- electrical conductivity (298.15 K, 101 kPa, x2 = 0.304): 1.23 S/m
- electrical conductivity (298.35 K, 101 kPa, x2 = 0.304): 1.22 S/m
- electrical conductivity (300.65 K, 101 kPa, x2 = 0.304): 1.32 S/m
- electrical conductivity (301.05 K, 101 kPa, x2 = 0.304): 1.33 S/m
- electrical conductivity (301.85 K, 101 kPa, x2 = 0.304): 1.37 S/m
- electrical conductivity (302.75 K, 101 kPa, x2 = 0.304): 1.44 S/m

SMILES: CCn1cc[nH+]c1.O=S(=O)([N-]S(=O)(=O)C(F)(F)F)C(F)(F)F + O
- viscosity (297.55 K, 101 kPa, x1 = 0.359): 11.2 mPa·s
- viscosity (297.55 K, 101 kPa, x1 = 0.667): 24.1 mPa·s
- viscosity (297.55 K, 101 kPa, x1 = 0.8): 32.7 mPa·s
- viscosity (297.55 K, 101 kPa, x1 = 0.941): 50.8 mPa·s
- viscosity (297.55 K, 101 kPa, x1 = 1): 57.1 mPa·s
